Measurements as given in the NIST ThermoML archive (doi:10.1021/je060113j).

Tests used:
[1] = 101.33 kPa, Liquid; for viscosity: Capillary tube (Ostwald / Ubbelohde) method; for mass density: Pycnometric method; for speed of sound: Sing-around technique in a fixed-path interferometer
[2] = xn = mol fraction of the nth substance listed; conditions: 101 kPa, Liquid; for viscosity: Capillary tube (Ostwald / Ubbelohde) method; for mass density: Pycnometric method; for speed of sound: Sing-around technique in a fixed-path interferometer

OCCO [1,2-ethanediol]
[1]
Conditions	mass density [kg/m3]	speed of sound [m/s]	viscosity [mPa·s]
298.15 K	1106.3	1666	16.39
308.15 K	–	–	10.77
318.15 K	–	–	7.703

OCCO [1,2-ethanediol] + CN(C)C=O
[2], x1 = 0.5408
Conditions	mass density [kg/m3]	speed of sound [m/s]	viscosity [mPa·s]
298.15 K	1024.8	1584.4	3.065
308.15 K	1016.8	–	2.453
318.15 K	1008.2	–	1.96

OCCO [1,2-ethanediol] + C[S+](C)[O-]
[2], x1 = 0.5573
Conditions	mass density [kg/m3]	speed of sound [m/s]	viscosity [mPa·s]
298.15 K	1108.5	1617.3	5.195
308.15 K	1098.9	–	3.901
318.15 K	1089.6	–	3.108

C1COCCO1 [1,4-dioxane]
[1]
Conditions	mass density [kg/m3]	speed of sound [m/s]	viscosity [mPa·s]
298.15 K	1027.3	1344	1.224
308.15 K	1016	–	0.9268
318.15 K	1005.6	–	0.7991

C1COCCO1 [1,4-dioxane] + OCCO
[2], x2 = 0.5867
Conditions	mass density [kg/m3]	speed of sound [m/s]	viscosity [mPa·s]
298.15 K	1070.9	1519.2	4.386
308.15 K	1060.4	–	3.36
318.15 K	1050.9	–	2.661

C[S+](C)[O-] [dimethyl sulfoxide]
[1]
Conditions	mass density [kg/m3]	speed of sound [m/s]	viscosity [mPa·s]
298.15 K	1095.4	1493	2.042
308.15 K	1085.9	–	1.568
318.15 K	1076.7	–	1.485

CN(C)C=O [dimethylformamide]
[1]
Conditions	mass density [kg/m3]	speed of sound [m/s]	viscosity [mPa·s]
298.15 K	946.1	1465	0.8586
308.15 K	939.9	–	0.7763
318.15 K	931.6	–	0.7125

C1CCOC1 [tetrahydrofuran]
[1]
Conditions	mass density [kg/m3]	speed of sound [m/s]	viscosity [mPa·s]
298.15 K	880.7	1279	0.463
308.15 K	871.2	–	0.4277
318.15 K	861.4	–	0.3902

C1CCOC1 [tetrahydrofuran] + OCCO
[2], x2 = 0.5374
Conditions	mass density [kg/m3]	speed of sound [m/s]	viscosity [mPa·s]
298.15 K	984.5	1436.8	2.509
308.15 K	974.1	–	1.866
318.15 K	964.9	–	1.558

O [water]
[1]
Conditions	mass density [kg/m3]	speed of sound [m/s]	viscosity [mPa·s]
298.15 K	–	1498	0.8904
308.15 K	994.1	–	0.7194
318.15 K	990.3	–	0.596
